US5486604A, “Cyclic ADP ribose antagonists” (Regents of the University of Minnesota, priority 1993, dated 1996)

Key:
[1] = test system: specific microsomal binding site for cADPR; settings: cited from earlier work
[2] = test system: cADPR-sensitive Ca^+2 release; experiment: cADPR-induced Ca2+ release from L. pictus egg homogenates, Fluo 3; assay type: biochemical, Lytechinus pictus
[3] = test system: cADPR-sensitive release; settings: pharmacological blockers of CICR; cited from earlier work
[4] = test system: cADPR-sensitive Ca^+2 release; experiment: cADPR-induced Ca2+ release from S. purpuratus egg homogenates, Fluo 3 as Ca2+ indicator; assay type: biochemical, Strongylocentrotus purpuratus
Description: FIG. 2 Inhibition of cADPR induced Ca^+2 release by 8-amino-cADPR Ca^+2 release from S. purpuratus homogenates (1.25%) was monitored using Fluo 3 as Ca^+2 indicator. (a) The effect of varying the concentration of cADPR on Ca^+2 release. (b) The inhibition of Ca^+2 release induced by 135 nM of cADPR by pre-treatment of the homogenates with 100 nM 8-amino-cADPR.
FIG. 3 Competitive inhibition of cADPR dependent Ca^+2 release by 8-amino-cADPR. Ca^+2 release from S. purpuratus homogenates (1.25%) induced by various concentrations of cADPR was measured in the presence and absence of 100 nM 8-amino-cADPR (8-amino-cADPR);
FIG. 5 Effectiveness of 8-amino-cADPR in blocking Ca^+2 release induced by cADPR. (a) Ca^+2 release from S. purpuratus homogenates (1.25%) induced by the addition of 95 nM cADPR was measured using Fluo 3 as Ca^+2 indicator. (b-d) After the Ca^+2 release had started, increasing amounts of 8-amino-cADPR (8-NH2) were added to give the final concentrations indicated in the Figure;
(§1) Homogenates from Strongylocentrotus purpuratus eggs were prepared as previously described (Lee, H. C. (1991) J. Biol. Chem. 266, 2276-2281, Lee, H. C. (1993) J. Biol. Chem. 268, 293-299). Briefly, eggs were washed once in artificial sea water, twice in Ca^+2 -free sea water containing 1 mM EGTA, twice in Ca^+2 -free sea water without EGTA, once with the homogenization buffer (GluIAG MPM) containing 250 mM N-methylglucamine, 250 mM potassium gluconate, 20 mM HEPES, and 1 mM MgCl2; pH titrated to 7.2 with acetic acid and resuspended with the same medium to 25% (v/v). The following additions were made: 10 μg/ml of leupeptin, 10 μg/ml of aprotinin, 50 μg/ml of soybean trypsin inhibitor, 2 units/ml of creatine kinase, 4 mM phosphocreatine and 0.5 mM ATP. The suspension was chilled on ice for 10-15 min and transferred to a beaker inside a cell disruption bomb (Parr Instrument Co., Ill.). The suspension was mixed continuously with a magnetic stirring bar while nitrogen pressure of 80 psi was applied for 10-30 seconds. The sudden decompression of the suspension as it was released from the bomb effectively homogenized the eggs. The homogenates were centrifuged for 12-14 seconds (13,000×g, 4° C.) in a microfuge (Fisher) and the supernatant was collected and stored frozen at -70 ° C. until use.
(§2) Frozen egg homogenates prepared as described above were thawed in a 17° C. water bath for 20-30 min and then diluted to 5% with the homogenization medium (GLuIM) containing 2 units/ml of creatine kinase, 4 mM phosphocreatine and 0.5 mM ATP. After incubating at 17° C. for one hour the homogenates were diluted sequentially to 2.5% and finally to 1.25% with the same medium. Following each dilution, the homogenates were incubated at 17° C. for one hour. After the last dilution, fluo 3 was added to a final concentration of 3 μM. Fluorescence was measured at 490 nm excitation and 535 nm emission using a Hitachi spectrofluorimeter (F-2000). Fluo 3 fluorescence intensity is directly related to the Ca^+2 concentration (Dargie, P. J., Agre, M. C., and Lee, Hon. C. (1990) Cell Regulation 1,279-290). In some Figures the Fluo 3 fluorescence intensity was calibrated with the addition of known amounts of Ca^ +2. All assays were done in a curvette maintained at 17° C. with a circulating water bath and its content continuously mixed with a magnetic stirring bar. The volume of homogenate used for each assay was 0.2 ml.

[5] = target: cADPR binding site; experiment: Specific binding of [32P]cADPR to sea urchin egg microsomes (filtration assay); parameters: species or system Lytechinus pictus
Description: FIG. 4 Competitive inhibition of ^32 P-cADPR binding by 8-amino-cADPR and cADPR. Specific binding of ^32 P-cADPR to L. pictus microsomes was measured in the presence of various concentrations of cADPR (filled squares) and 8-amino-cADPR (open squares). Total binding in the presence of a high concentration of cADPR (1.2 μM) was taken as non-specific binding (55 cpm) and was subtracted from all the values;
Specific binding of [^32 P]cADPR to sea urchin egg microsomes was determined by a filtration assay as described previously (Lee, H. C. (1991) J. Biol. Chem. 266, 2276-2281) with some modifications. L. pictus egg homogenates (1 ml) were dialyzed overnight against 1 liter of the homogenization buffer (GluIM listed above). After dialysis, the homogenates were centrifuged for 30 min in a microfuge and the supernatant containing microsomes was collected and diluted 20 fold with GluIM. About 40,000 cpm of [^32 P]cADPR (400 Ci/mmol) and various concentrations of either cADPR or 8-substituted analogs were incubated with the 20 fold diluted microsomes for 10 min at 4° C. in a volume of 0.1 ml. […] The filters were then washed with 4 ml of 10 % polyethylene glycol and the radioactivity on the filters was determined by liquid scintillation counting. […] The specific binding was determined as the total binding minus the binding in the presence of 1.2 μM of unlabeled cADPR. […]

[6] = test system: caffeine induced Ca^+2 release; experiment: Caffeine induced Ca2+ release and its potentiation by cADPR, S. purpuratus homogenates; assay type: biochemical, Strongylocentrotus purpuratus
Description: FIG. 7 Inhibition of the potentiating effect of cADPR on caffeine induced Ca^+2 release. Ca^+2 release from S. purpuratus homogenates (1.25%) was measured using Fluo 3 as Ca^+2 indicator. (a) In the absence of cADPR, addition of 1 mM caffeine induced no Ca^+2 release (curve labeled 0). The presence of 20 nM cADPR (arrow labeled cADPR) greatly potentiated the Ca^+2 releasing activity of 1 mM caffeine (curve labeled 20).
as §1, §2

[7] = test system: Ca^+2 induced Ca^+2 release; experiment: cADPR potentiation of divalent cation (Ca2+, Sr2+) induced Ca2+ release, S. purpuratus homogenates; assay type: biochemical, Strongylocentrotus purpuratus
Description: FIG. 6 Inhibition of the potentiating effect of cADPR on Ca^+2 release induced by divalent cations. […] release from S. purpuratus homogenates (1.25% ) was measured using Fluo 3 as Ca^+2 indicator. (a) Ca^+2 release was induced by 75 nM cADPR in the absence of 8-amino-cADPR (-8-NH2). Prior addition of 50 nM 8-amino-cADPR (+8 NH2) prohibited cADPR (75 nM) from releasing Ca^+2. (b) In the presence of 30 nM cADPR, addition of 0.4 nmol of Ca^+2 (arrow labeled Ca) induced further Ca^+2 release (-8-NH2). Prior addition of 50 nM 8-amino-cADPR blocked cADPR from potentiating the Ca^+2 induced Ca^+2 release (+8-NH2). (c) In the presence of 30 nM cADPR, addition of 2 nmol of Sr^+2 (arrow labeled Sr) induced further Ca^ +2 release (-8-NH2). […]
(§3) Frozen egg homogenates prepared as described above were thawed in a 17° C. water bath for 20-30 min and then diluted to 5% with the homogenization medium (GLuIM) containing 2 units/ml of creatine kinase, 4 mM phosphocreatine and 0.5 mM ATP. […] Fluorescence was measured at 490 nm excitation and 535 nm emission using a Hitachi spectrofluorimeter (F-2000). Fluo 3 fluorescence intensity is directly related to the Ca^+2 concentration (Dargie, P. J., Agre, M. C., and Lee, Hon. C. (1990) Cell Regulation 1,279-290). In some Figures the Fluo 3 fluorescence intensity was calibrated with the addition of known amounts of Ca^ +2. […]

[8] = test system: Ca^+2 release induced by ryanodine; experiment: Ryanodine induced Ca2+ release, S. purpuratus homogenates; assay type: biochemical, Strongylocentrotus purpuratus
Description: FIG. 8 Inability of 8-amino-cADPR to block Ca^+2 release induced by ryanodine. Ca^+2 release from S. purpuratus homogenates (1.25%) was measured using Fluo 3 as Ca^+2 indicator. Ryanodine and 8-amino-cADPR(8-NH2) were added to the final concentrations as indicated;
as §1, with “The homogenates were centrifuged for 12-14 seconds (13,000×g, 4° C.) in a microfuge (Fisher) and the supernatant was collected and stored frozen at -70 ° C. until use.” left out
as §3

inositol trisphosphate
competition for the specific microsomal binding site for cADPR, relative to cADPR [1]: at least a thousand times less effectively than cADPR

[N-]=[N+]=Nc1nc2c(=N)n3cnc2n1[C@@H]1O[C@H](COP(=O)(O)OP(=O)(O)OC[C@H]2O[C@@H]3[C@H](O)[C@@H]2O)[C@@H](O)[C@H]1O [8-azido-cADPR]
antagonist potency rank ([2]; data not shown): between that of 8-amino-cADPR and 8-Br-cADPR

CCN(CC)CCOC(=O)c1ccc(N)cc1 [procaine]
effect on the cADPR-sensitive release [3]: specifically inhibit

N.N.N.N.N.N.N.N.N.N.N.N.N.N.[Cl-].[Cl-].[Cl-].[Cl-].[Cl-].[Cl-].[O-2].[O-2].[Ru+3].[Ru+3].[Ru+4] [ruthenium red]
effect on the cADPR-sensitive release [3]: specifically inhibit

N=c1c2ncn3c2ncn1[C@@H]1O[C@H](COP(=O)(O)OP(=O)(O)OC[C@H]2O[C@@H]3[C@H](O)[C@@H]2O)[C@@H](O)[C@H]1O [cADPR, Cyclic ADP-ribose, reference compound]
EC50 ([4]; in the absence of the analog, read-out: half-maximal concentration for Ca^+2 release): ~90 nM
Kd ([5]; dialyzed L. pictus homogenates, 0-5 C, no ATP, read-out: apparent affinity constant derived from the binding data): ~1 nM
potentiation of caffeine (1 mM) induced Ca^+2 release ([6]; 20 nM cADPR, not sufficient to release Ca^+2 by itself): greatly increased the caffeine sensitivity

N=c1c2nc(N)n3c2ncn1[C@@H]1O[C@H](COP(=O)(O)OP(=O)(O)OC[C@H]2O[C@@H]3[C@H](O)[C@@H]2O)[C@@H](O)[C@H]1O [8-amino-cADPR]
effect on the concentration-response curve of cADPR ([4]; 100 nM 8-amino-cADPR present): shifted the concentration-response curve toward higher concentrations of cADPR
IC50 ([4]; 135 nM cADPR, read-out: concentration of antagonist at which the rate of Ca^+2 release induced by cADPR was reduced by half): ~9 nM
block of Ca^+2 release induced by cADPR ([4]; 150 nM analog added before 135 nM cADPR): virtually complete
Ca^+2 release caused by the analog itself ([4]; 150 nM final concentration, egg homogenates 1.25%): did not cause any
kind of antagonism of cADPR ([4]; inhibition overcome by increasing cADPR): reversible antagonist
block of Ca^+2 release induced by 75 nM cADPR ([4]; prior addition of 50 nM antagonist): total blockage
effect on ongoing Ca^+2 release when added after release had commenced ([4]; release activated by 95 nM cADPR, 100 nM antagonist): almost total cessation
competition for the [32P]cADPR binding sites ([5]; L. pictus egg microsomes, compared with unlabeled cADPR): as effective as cADPR itself
stimulated Ca^+2 release after 0.4 nmol Ca^+2 in the presence of 30 nM cADPR ([7]; 50 nM antagonist added before cADPR): absent
stimulated Ca^+2 release after Sr^+2 in the presence of 30 nM cADPR ([7]; prior addition of 50 nM antagonist, 2 nmol Sr^+2): blocked
block of Ca^+2 release induced by a high concentration of caffeine ([6]; 100 nM antagonist, 2.5 mM caffeine, data not shown): did not block
inhibition of cADPR (20 nM) potentiation of caffeine (1 mM) induced Ca^+2 release ([6]; prior addition of 10 nM antagonist): substantial inhibition
inhibition of cADPR (20 nM) potentiation of caffeine (1 mM) induced Ca^+2 release ([6]; prior addition of 100 nM antagonist): completely blocked
effect of antagonist on the Ca^+2 release activity of ryanodine ([8]; 100 nM antagonist): slightly stimulated
inhibition of Ca^+2 release induced by ryanodine ([8]; 100 nM antagonist): did not inhibit

Cn1c(=O)c2c(ncn2C)n(C)c1=O [caffeine, reference compound]
Ca^+2 release by caffeine alone ([6]; 1 mM caffeine, absence of cADPR): did not produce any

N=c1c2nc(Br)n3c2ncn1[C@@H]1O[C@H](COP(=O)(O)OP(=O)(O)OC[C@H]2O[C@@H]3[C@H](O)[C@@H]2O)[C@@H](O)[C@H]1O [8-Br-cADPR]
concentrations required for antagonism, compared with 8-amino-cADPR ([2]; 40 nM cADPR): required micromolar concentrations
Ca^+2 release caused by the analog itself ([2]; 1 to 3.5 uM, L. pictus homogenates 2.5%): did not release
blockage of Ca^+2 release induced by 40 nM cADPR ([2]; prior addition of increasing concentrations, 1 to 3.5 uM): progressive blockage

ryanodine [reference compound]
Ca^+2 release on addition to egg homogenates ([8]; ryanodine alone): concentration-dependent release
